Measurements from patent US20240043473A1, “NOOTROPIC PEPTIDES FOR TREATING LYSOSOMAL STORAGE DISEASES” (Phoenix Nest Inc., priority 2021, published 2024).
“Also recorded” adds a separate entry of the source. No end group written: not given here.

Experiments:
Assay type in all cases: in vivo, mouse
Hgsnat^P304L mice = experiment: Survival / onset of lethal urinary retention under chronic daily treatment; settings: chronic daily 50 μg/kg BW; AVP6-treated Hgsnat^P304L mice
Protocol: Starting from 3 weeks of age, WT C57B16 and homozygous Hgsnat^P304L male and female mice were randomly divided in treatment and control groups (6-13 mice/sex/genotype/treatment; see Table I). The control group was daily administered with saline (5 μL to each nostril), while for the treatment group, saline was supplemented with 125 µg of AVP6/mL, which would result in a dose of approximately 50 μg/kg BW/day. The peptide formulation was prepared once, aliquoted and kept frozen at −80° C. until use. At 4 months, all mice were studied by EPM, OF, YM and NOR behavioral tests. Administration of the drug or saline was continued through the days on which the assays were conducted. Then approximately at 5 months 4-5 mice in each group were sacrificed. […] When such signs were detected, the mice were studied by ERG and sacrificed within 1-2 days. […]
Unlike human MPS III patients, Hgsnat^P304L mice at the age of approximately 8 months develop urinary retention resulting in abdominal distension and requiring humane euthanasia. […] Previously we determined the average survival age of Hgsnat^P304L mice as 42 weeks. To test whether the AVP6 treatment delayed development of this phenotype, mice in both treatment and vehicle groups were examined for the signs of urinary retention on a daily basis, starting from the age of 7 months, and immediately sacrificed, when abdominal distension was detected. […]

[1] = tested on: Hgsnat^P304L and Hgsnat-Geo MPS IIIC mice; experiment: Elevated Plus Maze test
Protocol: Method: Elevated plus maze that measures a natural fear of heights reflex of animals. AVP6 was administered intranasally at 50 μg/kg (5 μl/nostril) to the animals 17 h before the experiment.
The elevated plus-maze test was performed as follows. Each mouse was placed in the center of the elevated plus maze and allowed to freely explore undisturbed for 10 min. After each testing, the mouse was returned to the home cage and the arena was cleaned with 70% ethanol before the commencement of the next test. Analysis of the behavioral activity (percentage of time spent in the center zone, closed arms, and open arms; as well as the number of open arm entries) was done by the Smart v3.0 software.
(§1) Starting from 3 weeks of age, WT C57B16 and homozygous Hgsnat^P304L male and female mice were randomly divided in treatment and control groups (6-13 mice/sex/genotype/treatment; see Table I). The control group was daily administered with saline (5 μL to each nostril), while for the treatment group, saline was supplemented with 125 µg of AVP6/mL, which would result in a dose of approximately 50 μg/kg BW/day. The peptide formulation was prepared once, aliquoted and kept frozen at −80° C. until use. At 4 months, all mice were studied by EPM, OF, YM and NOR behavioral tests. Administration of the drug or saline was continued through the days on which the assays were conducted. Then approximately at 5 months 4-5 mice in each group were sacrificed. Their blood plasma was collected, and their tissues were either snap-frozen or fixed and cryopreserved to analyze CNS pathology as described above. For the remaining mice, treatment was continued and their behaviour was studied again at the age of 6 months using OF. NOR and YM tests. Starting from the age of 8 months, Hgsnat^P304L treated and untreated mice were daily studied for the signs of urinary retention. When such signs were detected, the mice were studied by ERG and sacrificed within 1-2 days. Finally, the remaining treated and untreated WT mice were studied by ERG and sacrificed at the end of the study, approximately at 10 months of age.

[2] = tested on: Hgsnat-Geo and Hgsnat^P304L MPS IIIC mice; experiment: Novel Object Recognition test
Protocol: Method: Novel object recognition test that studies working memory of mice by measuring their ability to discriminate a familiar from a novel object. AVP6 was administered intranasally at a daily dose 50 μg/kg (5 μl/nostril) for 10 consecutive days before the experimental day.
Novel object recognition test was used for assessing short-term recognition memory. Mice were placed individually in a 44×33×20 cm (length×width×height) testing chamber with white Plexiglas walls for 10 min habituation period and returned to their home cage. The next day, mice were placed in the testing chamber for 10 min with two identical objects (red plastic towers, 3×1.5×4.5 cm), returned to the home cages, and 1 hour later, placed back into the testing chamber in the presence of one of the original objects and one novel object (a blue plastic base, 4.5×4.5×2 cm) for 10 min. After each mouse, the test arena as well as the plastic objects were cleaned with 70% ethanol to avoid olfactory cue bias. The discrimination index (DI) was calculated as the difference of the exploration time between the novel and old object divided by total exploration time.
as §1, with “Finally, the remaining treated and untreated WT mice were studied by ERG and sacrificed at the end of the study, approximately at 10 months of age.” left out
The ability of the peptide to improve the memory deficits was tested in the 4-months-old Hgsnat-Geo mice using the Novel Object Recognition (NOR) test that studies working memory of mice by measuring their ability to discriminate a familiar object a novel one. […] Immediately after the test, mice were sacrificed and the levels of mature BDNF protein were measured in their hippocampi by immunoblot.

[3] = chronic daily intranasal 50 μg/kg BW from 3 weeks, Hgsnat^P304L mice at 4 months

AVP6: N-terminally acetylated Semax, a nootropic peptide having the amino acid sequence of MEHFPGP (SEQ ID NO:1) (Ac-MEHFPGP)
average survival age / life span (Hgsnat^P304L mice): 49 weeks | reduced fear (open arm entries, time in open arms), Elevated Plus Maze [1, 3]: showed no difference from their WT counterparts; also recorded: show the rescue of all above deficits | Elevated Plus Maze parameters in WT mice ([1]; chronic daily treatment, WT mice at 4 months): no effect of the drug was detected in the WT mice | reduced fear/anxiety, Elevated Plus Maze ([1]; single intranasal 50 μg/kg 17 h before test, Hgsnat-Geo mice, 6 months): showed a behavior similar to their WT counterparts; also recorded: also rescues reduced anxiety in EPM test | reduced fear (time spent in open arms, number of open arm entries), Elevated Plus Maze ([1]; single intranasal 50 μg/kg 17 h before test, Hgsnat^P311L (P304L) mice, 4 months): rescues reduced fear; also recorded: showed a behavior similar to their WT counterparts; also recorded: Both parameters are normalized | short-term memory deficit, Novel Object Recognition ([2]; chronic 50 μg/kg BW/day, Hgsnat^P304L mice at 6 months): partially rescues deficits in spatial and short-term memory | short-term memory deficit (discrimination and recognition indexes), Novel Object Recognition [2, 3]: rescues deficits in spatial and short-term memory; also recorded: show the rescue of all above deficits | working (short-term) memory deficit: discrimination index and recognition index, Novel Object Recognition ([2]; intranasal 50 μg/kg daily for 10 consecutive days, 4-month-old Hgsnat-Geo mice): significantly recovered memory deficits; also recorded: rescues working memory deficits; also recorded: This deficit is rescued | discrimination index and recognition index in WT mice, Novel Object Recognition ([2]; intranasal 50 μg/kg daily for 10 days, WT mice vs saline): trend for an increase
